In US20230128969A1, “POLYURETHANE FOAM COMPOSITIONS WITH ANTIMICROBIAL PROPERTIES” (SANITIZED AG, priority 2020, published 2023):
Where “and” joins values, the source holds several entries; their conditions need not be identical. Equal entries are not always repeated. Where two headings read alike, the source gives them in different places.

What was measured:
[1] = test system: Aspergillus niger-ATCC 9642, Penicillium funiculosum-ATCC 11797, Chaetomium globosum-ATCC 6205, Trichoderma virens-ATCC 9645, Aureobasidium pullulans-ATCC …; experiment: ASTM G21 strengthened (fungal growth on specimen, 28 days); assay type: cell-based, mold fungi (composite spore suspension); settings: for ASTM G21: 0.5 pbw (B) with 0.25 pbw (C) C8-C18-alkyldimethylbenzyl ammonium chloride; for ASTM G21 strengthened rating: rigid foam A4
[2] = test system: Aspergillus niger-ATCC 6275, Penicillium funiculosum-ATCC 36839, Chaetomium globosum-ATCC 6205, Trichoderma virens ATCC 9645, Paecilomyces varioti-ATCC 18502; experiment: EN ISO 846 A test method (PUD coatings, 28 days); assay type: cell-based, fungi (composite spore suspension); set-up: key: 0: No fungal growth, excellent resistance; 1: fungi visible with the microscope, sufficient resistance; 2-5: fungi visible to the naked eye, insufficient resistance; settings: polyurethane coating A5
[3] = test system: Penicillium funiculosum-ATCC 36839; experiment: Agar diffusion test SAN BIO 12/94; assay type: cell-based; settings: polyurethane coating A5
[4] = test system: Escherichia coli ATCC 11229; experiment: JIS L 1902 test method (memory foam, 18 hours); assay type: cell-based; settings: memory foam A2
[5] = test system: Escherichia coli ATCC 8739; experiment: JIS Z 2801 test method (PUD coatings, 24 hours); assay type: cell-based; settings: polyurethane coating A5
[6] = memory foam A1, 0.2 pbw (B) with 0.5 pbw (C) dimethyltetradecyl(3-(trimethoxysilyl)propyl)ammonium chloride, (E) Diglyme 0.8 pbw
[7] = memory foam A2, 0.5 pbw (B), 0 pbw (C)
[8] = memory foam A2, 0.125 pbw (C), 0 pbw (B)
[9] = memory foam A2, 0.25 pbw (C), 0 pbw (B)
[10] = memory foam A2, 0.5 pbw (C), 0 pbw (B)
[11] = 0.5 pbw (C) with 0.25 pbw (B) tetrasodium EDTA salt
[12] = 0.5 pbw (C) with 0.5 pbw (B) tetrasodium EDTA salt
[13] = memory foam A2, 1 pbw (C), 0 pbw (B)
[14] = memory foam A2, 2 pbw (C), 0 pbw (B)

**Q.** How did the “G21 (ASTM G21 strengthened rating)” value [1, 6] turn out when `O=C(O)CC(O)(CC(=O)O)C(=O)O` [Citric acid] was run?
**A.** 4 (at least 60% of the surface is covered with mold fungi)

**Q.** Which results are given for `O=C(O)CN(CCO)CCN(CC(=O)O)CC(=O)O` [N-(2-Hydroxyethyl)-ethylenediamine-N,N′,N′-triacetic acid]?
**A.** ASTM G21 ([1]; memory foam A2): 2 (10 to 30% of the surface is covered with mold fungi); G21 (ASTM G21 strengthened rating) [1, 7]: 3 (30 to 60% of the surface is covered with mold fungi)

**Q.** How did the “G21 (ASTM G21 strengthened rating)” value [1, 6] turn out when `O=C(O)CN(CC(=O)O)CC(=O)O` [Nitrilotriacetic acid] was run?
**A.** 4 (at least 60% of the surface is covered with mold fungi)

**Q.** Which “G21 (ASTM G21 strengthened rating)” value ([1]; memory foam A1, 0.5 pbw (B) with 0.5 pbw (C) dimethyltetradecyl(3-(trimethoxysilyl)propyl)ammonium chloride, (E) Arcol Polyol 1108 0.5 pbw) does the source give for `CCCCCCCCCCC(=O)O` [Undecanoic acid] here?
**A.** 4 (at least 60% of the surface is covered with mold fungi)

**Q.** With `CCCCCCCCCC[N+](C)(C)CCCCCCCCCC.[Cl-]` [didecyldimethyl ammonium chloride] as the molecule, how does the “G21 (ASTM G21 strengthened rating)” value [1] read?
**A.** 0

**Q.** For `CCCCCCCCCCCCCCCCCC[N+](C)(C)CCC[Si](OC)(OC)OC.[Cl-]` [dimethyloctadecyl(3-(trimethoxysilyl)propyl)ammonium chloride], which “G21 (ASTM G21 strengthened rating)” value [1, 8] is on record?
**A.** 4 (at least 60% of the surface is covered with mold fungi)

**Q.** And the “G21 (ASTM G21 strengthened rating)” value [1, 9]?
**A.** 3 (30 to 60% of the surface is covered with mold fungi)

**Q.** Which “G21 (ASTM G21 strengthened rating)” value ([1]; memory foam A1, 0.5 pbw (C), no (B), (E) Arcol Polyol 1108 1 pbw) does the source give for `CCCCCCCCCCCCCC[N+](C)(C)CCC[Si](OC)(OC)OC.[Cl-]` [dimethyltetradecyl(3-(trimethoxysilyl)propyl)ammonium chloride] here?
**A.** 4 (at least 60% of the surface is covered with mold fungi)

**Q.** And the “G21 (ASTM G21 strengthened rating)” value ([1]; memory foam A1, 0.5 pbw (C), no (B), (E) Diglyme 1 pbw)?
**A.** 4 (at least 60% of the surface is covered with mold fungi)

**Q.** What about the “G21 (ASTM G21 strengthened rating)” value ([1]; memory foam A1, 0.5 pbw (C), no (B), (E) Triacetin 1 pbw) of the same molecule?
**A.** 4 (at least 60% of the surface is covered with mold fungi)

**Q.** What about the “G21 (ASTM G21 strengthened rating)” value ([1]; memory foam A1, 0.5 pbw (C), no (B), no (E)) of the same molecule?
**A.** 3 (30 to 60% of the surface is covered with mold fungi)

**Q.** What about the “G21 (ASTM G21 strengthened rating)” value [1, 8] of the same molecule?
**A.** 4 (at least 60% of the surface is covered with mold fungi)

**Q.** What about the “G21 (ASTM G21 strengthened rating)” value [1, 9] of the same molecule?
**A.** 3 (30 to 60% of the surface is covered with mold fungi)

**Q.** What about the “G21 (ASTM G21 strengthened rating)” value [1, 10] of the same molecule?
**A.** 0

**Q.** And the “EN ISO 846 A rating” value [2, 11]?
**A.** 3

**Q.** And the “EN ISO 846 A rating” value [2, 12]?
**A.** 1

**Q.** And the “EN ISO 846 A rating” value ([2]; 0.5 pbw (C) with 1 pbw (B) tetrasodium EDTA salt)?
**A.** 0

**Q.** And the “EN ISO 846 A rating” value ([2]; 0.5 pbw (C), 0 pbw (B))?
**A.** 5

**Q.** And the “SAN BIO 12-94 fungal growth” value ([3]; 0.5 pbw (C), 0 pbw (B))?
**A.** Full (f) (insufficient protection, sample is covered with fungi)

**Q.** And the “logarithmic reduction of bacterial growth (log R), JIS L 1902” value ([4]; 1 pbw (C), 0 pbw (B))?
**A.** 2.7 log R

**Q.** And the “bacterial growth (in words)” value ([4]; combination of (C) with (B) disodium EDTA dihydrate)?
**A.** absence of bacterial growth

**Q.** And the “Bacterial Activity R, logarithmic reduction (log R activity), JIS Z 2801” value ([5]; 0.125 pbw (C) with 0.25 pbw (B) tetrasodium EDTA salt)?
**A.** 2.80 log R

**Q.** What about the “Bacterial Activity R, logarithmic reduction (log R activity), JIS Z 2801” value ([5]; 0.125 pbw (C) with 0.5 pbw (B) tetrasodium EDTA salt) of the same molecule?
**A.** >5.10 log R

**Q.** And the “Bacterial Activity R, logarithmic reduction (log R activity), JIS Z 2801” value ([5]; 0.125 pbw (C), 0 pbw (B))?
**A.** 0.10 log R

**Q.** And the “Bacterial Activity R, logarithmic reduction (log R activity), JIS Z 2801” value [5, 11]?
**A.** 2.90 log R

**Q.** What about the “Bacterial Activity R, logarithmic reduction (log R activity), JIS Z 2801” value [5, 12] of the same molecule?
**A.** >5.10 log R

**Q.** What about the “Bacterial Activity R, logarithmic reduction (log R activity), JIS Z 2801” value ([5]; 0.5 pbw (C), 0 pbw (B)) of the same molecule?
**A.** 0.50 log R

**Q.** How did the “G21 (ASTM G21 strengthened rating)” value [1, 6] turn out when `O.O.O=C([O-])CN(CCN(CC(=O)O)CC(=O)O)CC(=O)[O-].[Na+].[Na+]` [disodium EDTA dihydrate, Disodium EDTA dihydrate] was run?
**A.** 0

**Q.** And the “antimicrobial efficiency / protection (in words)” value ([1]; memory foam A1, (B) combined with (C) dimethyltetradecyl(3-(trimethoxysilyl)propyl)ammonium chloride, ASTM G21 strengthened)?
**A.** very good antimicrobial efficiency

**Q.** What about the “G21 (ASTM G21 strengthened rating)” value ([1]; memory foam A2, 0.25 pbw (B), 0 pbw (C)) of the same molecule?
**A.** 3 (30 to 60% of the surface is covered with mold fungi)

**Q.** What about the “ASTM G21” value ([1]; memory foam A2) of the same molecule?
**A.** 0

**Q.** What about the “G21 (ASTM G21 strengthened rating)” value [1, 7] of the same molecule?
**A.** 3 (30 to 60% of the surface is covered with mold fungi)

**Q.** And the “G21 (ASTM G21 strengthened rating)” value ([1]; memory foam A2, 1 pbw (B), 0 pbw (C))?
**A.** 3 (30 to 60% of the surface is covered with mold fungi)

**Q.** What about the “ASTM G21 strengthened rating” value ([1]; 0.5 pbw (B), 0 pbw (C)) of the same molecule?
**A.** 4 (at least 60% of the surface is covered with mold fungi)

**Q.** What about the “SAN BIO 12-94 fungal growth” value ([3]; 0.25 pbw (B), 0 pbw (C)) of the same molecule?
**A.** Full (f) (insufficient protection, sample is covered with fungi)

**Q.** What about the “SAN BIO 12-94 fungal growth” value ([3]; 0.5 pbw (B), 0 pbw (C)) of the same molecule?
**A.** Full (f) (insufficient protection, sample is covered with fungi)

**Q.** What about the “SAN BIO 12-94 fungal growth” value ([3]; 1 pbw (B), 0 pbw (C)) of the same molecule?
**A.** Full (f) (insufficient protection, sample is covered with fungi)

**Q.** What about the “logarithmic reduction of bacterial growth (log R), JIS L 1902” value ([4]; 0.25 pbw (B), 0 pbw (C)) of the same molecule?
**A.** 3.1 log R

**Q.** `CCCCCCCCCCCCN(CCCN)CCCN` [laurylamine dipropylenediamine] was tested. Which “G21 (ASTM G21 strengthened rating)” value [1, 10] did it give?
**A.** 4 (at least 60% of the surface is covered with mold fungi)

**Q.** What about the “G21 (ASTM G21 strengthened rating)” value [1, 13] of the same molecule?
**A.** 4 (at least 60% of the surface is covered with mold fungi)

**Q.** What does the source list for `CCCCCCCCCCCCCC[N+](C)(C)C.[Cl-]` [myristyltrimethylammonium chloride]?
**A.** G21 (ASTM G21 strengthened rating) [1, 10]: 2 (10 to 30% of the surface is covered with mold fungi); G21 (ASTM G21 strengthened rating) [1, 13]: 0; G21 (ASTM G21 strengthened rating) [1, 14]: 0

**Q.** Which results are given for `O=C([O-])CN(CCN(CC(=O)[O-])CC(=O)[O-])CC(=O)[O-].[Na+].[Na+].[Na+].[Na+]` [tetrasodium EDTA salt, EDTA, tetrasodium]?
**A.** G21 (ASTM G21 strengthened rating) [1]: 0; antimicrobial efficiency / protection (in words) [1]: very good antimicrobial efficiency; EN ISO 846 A rating ([2]; 0.25 pbw (B), 0 pbw (C)): 5; EN ISO 846 A rating ([2]; 0.5 pbw (B), 0 pbw (C)): 5; EN ISO 846 A rating ([2]; 1 pbw (B), 0 pbw (C)): 5; Bacterial Activity R, logarithmic reduction (log R activity), JIS Z 2801 ([5]; 0.25 pbw (B), 0 pbw (C)): 0.90 log R; Bacterial Activity R, logarithmic reduction (log R activity), JIS Z 2801 ([5]; 0.5 pbw (B), 0 pbw (C)): 3.20 log R

**Q.** What does the source list for “C8-C18-alkyldimethylbenzyl ammonium chloride”?
**A.** G21 (ASTM G21 strengthened rating) [1, 9]: 3 (30 to 60% of the surface is covered with mold fungi) and 2 (10 to 30% of the surface is covered with mold fungi); G21 (ASTM G21 strengthened rating) [1, 10]: 4 (at least 60% of the surface is covered with mold fungi); G21 (ASTM G21 strengthened rating) [1, 13]: 4 (at least 60% of the surface is covered with mold fungi); G21 (ASTM G21 strengthened rating) [1, 14]: 0; ASTM G21 strengthened rating ([1]; 0.25 pbw (C), 0 pbw (B)): 3 (30 to 60% of the surface is covered with mold fungi)
